This is an account of results in ChEMBL document CHEMBL4613246, “Antimycobacterial Rufomycin Analogues from Streptomyces atratus Strain MJM3502” (J Nat Prod, 2020).

Assay [1] has as its system Mycobacterium tuberculosis. Put plainly: Antimycobacterial activity against Mycobacterium tuberculosis H37Rv assessed as reduction in microbial growth after 7 days by alamar blue assay. The format is functional. To be noted: 168 h. A general note: Resazurin is reduced to fluorescent resorufin, in cell work by metabolically active cells.
Assay [2] concerns Mycobacterium tuberculosis. Kind of assay: Antimycobacterial activity against nonreplicating Mycobacterium tuberculosis H37Rv under hypoxic condition by fluorescence based assay. It is filed as functional.
Assay [3] has as its target T1, ATP-dependent Clp protease ATP-binding subunit ClpC1 (Mycobacterium tuberculosis, UniProt P9WPC9). Put plainly: Binding affinity to recombinant full length Mycobacterium tuberculosis H37Rv ClpC1 (1 to 842 residues) expressed in Escherichia coli BL21 cells by surface plasmon resonance analysis. In general terms: SPR reads the build-up and loss of mass on a sensor chip optically.

The target of assay [4] is T1, ATP-dependent Clp protease ATP-binding subunit ClpC1. Kind of assay: Binding affinity to recombinant Mycobacterium tuberculosis H37Rv N-terminal His6-tagged ClpC1 (1 to 145 residues) expressed in Escherichia coli BL21 cells by surface plasmon resonance analysis.
The subject of assay [5] is Mycobacteroides abscessus. Put plainly: Antimycobacterial activity against Mycobacterium abscessus ATCC 19977 assessed as reduction in microbial growth after 7 days by alamar blue assay. The format is functional. To be noted: ATCC 19977, 168 h.
The subject of a further assay is Vero. Put plainly: cells. Conditions: Chlorocebus sabaeus.

≈ marks a conversion by molar mass, not a printed value. Starred links: 1 amine or outer side, 2 acyl side, 3 side chain; linkers in the order of their positions; H or OH if unused. Non-standard residues stand in square brackets, D forms with d. Residues, ends and D or L forms follow the SMILES beside them. Trp(1-CMe2(2S-oxiranyl)) = CC(C)([C@H]1CO1)n1cc(C[C@H](N)C(=O)O)c2ccccc21; Trp(1-(1,1-Me2-allyl)) = C=CC(C)(C)n1cc(C[C@H](N)C(=O)O)c2ccccc21; X3 = CC(C)([C@H](O)CCl)n1cc(C[C@H](N[*:1])C(=O)[*:2])c2ccccc21; Tyr(3-NO2) = N[C@@H](Cc1ccc(O)c([N+](=O)[O-])c1)C(=O)O; NMeLeu(5-OH,4R) = CN[C@@H](C[C@@H](C)CO)C(=O)O; X1 = COC(OC)C(C)C[C@@H](C(=O)[*:2])N(C)[*:1]; X2 = C[C@H](CO)C[C@@H](C(=O)[*:2])N(C)[*:1]; Gly(E-crotyl) = C/C=C/C[C@H](N)C(=O)O; NMeL = CN[C@@H](CC(C)C)C(=O)O

T1 sequence (P9WPC9 whole entry, the tested form may be a part): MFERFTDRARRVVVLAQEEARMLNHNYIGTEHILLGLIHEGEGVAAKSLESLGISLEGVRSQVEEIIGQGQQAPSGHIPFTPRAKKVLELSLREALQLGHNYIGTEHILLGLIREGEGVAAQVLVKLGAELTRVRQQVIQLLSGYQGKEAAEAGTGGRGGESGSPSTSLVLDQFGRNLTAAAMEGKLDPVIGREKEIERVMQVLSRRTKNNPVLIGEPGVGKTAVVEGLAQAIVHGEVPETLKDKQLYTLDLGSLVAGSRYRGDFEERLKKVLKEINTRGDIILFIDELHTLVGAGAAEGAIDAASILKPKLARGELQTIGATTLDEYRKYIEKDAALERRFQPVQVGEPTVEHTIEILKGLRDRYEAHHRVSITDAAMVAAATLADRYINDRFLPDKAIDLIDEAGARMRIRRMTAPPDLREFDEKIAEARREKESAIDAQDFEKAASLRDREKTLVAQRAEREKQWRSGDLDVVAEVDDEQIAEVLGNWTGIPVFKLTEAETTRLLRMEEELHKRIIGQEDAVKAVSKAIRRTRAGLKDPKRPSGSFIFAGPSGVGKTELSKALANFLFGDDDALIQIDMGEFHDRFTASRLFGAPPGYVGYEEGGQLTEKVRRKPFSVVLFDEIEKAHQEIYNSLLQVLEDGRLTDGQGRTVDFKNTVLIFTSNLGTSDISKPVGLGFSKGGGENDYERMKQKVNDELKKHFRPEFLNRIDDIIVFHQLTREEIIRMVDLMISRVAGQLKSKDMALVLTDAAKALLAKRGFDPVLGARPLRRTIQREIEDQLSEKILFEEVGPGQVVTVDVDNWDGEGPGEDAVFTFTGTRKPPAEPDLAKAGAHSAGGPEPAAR
Description for Vero: Cytotoxicity against African green monkey Vero cells

Turning to `C=CC(C)(C)n1cc(C[C@@H]2NC(=O)[C@H](CC(C)C)N(C)C2=O)c2ccccc21`, the MIC (in general, the smallest concentration in the dilution series that meets the test's criterion for growth inhibition) in assay [1] is greater than 10 µM; in assay [2], 4 to 10 µM (≈ 1.53 to 3.82 µg/mL).
As to `C/C=C/C[C@@H]1NC(=O)[C@H](CC(C)C)N2C(=O)[C@H](C[C@](C)(O)[C@H]2O)N(C)C(=O)[C@H](C)NC(=O)[C@H](Cc2ccc(O)c([N+](=O)[O-])c2)NC(=O)[C@H](CC(C)C)N(C)C(=O)[C@H](Cc2cn(C(C)(C)[C@H]3CO3)c3ccccc23)NC1=O`, the MIC in assay [1] was 0.03 µM; in assay [2] it was 4 to 10 µM (≈ 4.23 to 10.6 µg/mL). The dissociation constant (Kd) (in general, the constant that tells how readily two partners part at equilibrium) was found to be 0.05 µM in assay [3] and 0.06 µM in assay [4].
With `C/C=C/C[C@@H]1NC(=O)[C@H](CC(C)C)N2C(=O)[C@H](CC(C)[C@H]2O)N(C)C(=O)[C@H](C)NC(=O)[C@H](Cc2ccc(O)c([N+](=O)[O-])c2)NC(=O)[C@H](CC(C)C)N(C)C(=O)[C@H](Cc2cn(C(C)(C)[C@H]3CO3)c3ccccc23)NC1=O` (stereo not given in full), the MIC in assay [5] is 0.29 µM; in assay [1], 0.02 µM; in assay [2], 4 to 10 µM (≈ 4.17 to 10.4 µg/mL). Moreover, the Kd in assay [3] and in assay [4] was 0.06 µM throughout.
`C/C=C/C[C@@H]1NC(=O)[C@H](CC(C)C)N2C(=O)[C@H](C[C@@H](C)[C@H]2O)N(C)C(=O)[C@H](C)NC(=O)[C@H](Cc2ccc(O)c([N+](=O)[O-])c2)NC(=O)[C@H](CC(C)C)N(C)C(=O)[C@H](Cc2cn(C(C)(C)[C@H](O)CO)c3ccccc23)NC1=O`: the MIC in assay [1] is 0.1 µM; in assay [2], 4 to 10 µM (≈ 4.24 to 10.6 µg/mL). Besides, the Kd was determined as 0.28 µM in assay [3] and 0.3 µM in assay [4].
For `C=CC(C)(C)n1cc(C[C@@H]2NC(=O)[C@H](C/C=C/C)NC(=O)[C@H](CC(C)C)NC(=O)[C@H](CC(C)C)N(C)C(=O)[C@H](C)NC(=O)[C@H](Cc3ccc(O)cc3)NC(=O)[C@H](CC(C)C)N(C)C2=O)c2ccccc21` (HELM PEPTIDE1{A.[meL].L.[C/C=C/C[C@H](N[*:1])C(=O)[*:2]].[C=CC(C)(C)n1cc(C[C@H](N[*:1])C(=O)[*:2])c2ccccc21].[meL].Y}$PEPTIDE1,PEPTIDE1,1:R1-7:R2$$$V2.0), in that order: greater than 10 µM, 4 to 10 µM (≈ 3.87 to 9.67 µg/mL), 5.7 µM and 1.2 µM.
The like results for `C=CC(C)(C)n1cc(C[C@@H]2NC(=O)[C@H](C/C=C/C)NC(=O)[C@H](CC(C)C)NC(=O)[C@H](CC(C)C)N(C)C(=O)[C@H](C)NC(=O)[C@H](Cc3ccc(O)c([N+](=O)[O-])c3)NC(=O)[C@H](CC(C)C)N(C)C2=O)c2ccccc21` (cyclo(A[NMeL]L[Gly(E-crotyl)][Trp(1-(1,1-Me2-allyl))][NMeL][Tyr(3-NO2)])) were, in that order, 1.7 µM, 4 to 10 µM (≈ 4.05 to 10.1 µg/mL), 3.2 µM and 1.2 µM.
`C/C=C/C[C@@H]1NC(=O)[C@H](CC(C)C)NC(=O)[C@H](CC(C)C)N(C)C(=O)[C@H](C)NC(=O)[C@H](Cc2ccc(O)c([N+](=O)[O-])c2)NC(=O)[C@H](CC(C)C)NC(=O)[C@H](Cc2cn(C(C)(C)[C@H]3CO3)c3ccccc23)NC1=O` (cyclo(A[NMeL]L[Gly(E-crotyl)][Trp(1-CMe2(2S-oxiranyl))]L[Tyr(3-NO2)])): the results for the MIC in assay [1] and in assay [2] were 0.57 µM and 4 to 10 µM (≈ 4.06 to 10.1 µg/mL), respectively. Moreover, the Kd in assay [3] was found to be 1.5 µM.
Regarding `C/C=C/C[C@@H]1NC(=O)[C@H](CC(C)C)NC(=O)[C@H](CC(C)C)N(C)C(=O)[C@H](C)NC(=O)[C@H](Cc2ccc(O)c([N+](=O)[O-])c2)NC(=O)[C@H](CC(C)C)N(C)C(=O)[C@H](Cc2cn(C(C)(C)[C@H]3CO3)c3ccccc23)NC1=O` (cyclo(A[NMeL]L[Gly(E-crotyl)][Trp(1-CMe2(2S-oxiranyl))][NMeL][Tyr(3-NO2)])), the MIC in assay [1] is 0.2 µM; in assay [2], 4 to 10 µM (≈ 4.11 to 10.3 µg/mL). In addition, the Kd in assay [3] turned out to be 0.54 µM; in assay [4], 1.7 µM.
As for `C/C=C/C[C@@H]1NC(=O)[C@H](CC(C)C)NC(=O)[C@H](CC(C)C)N(C)C(=O)[C@H](C)NC(=O)[C@H](Cc2ccc(O)c([N+](=O)[O-])c2)NC(=O)[C@H](CC(C)C)N(C)C(=O)[C@H](Cc2cn(C(C)(C)[C@H](O)CCl)c3ccccc23)NC1=O` (cyclo(A[NMeL]L[Gly(E-crotyl)][X3][NMeL][Tyr(3-NO2)])), the Kd in assay [3] and in assay [4] was 1.5 µM each time. In assay [2], this compound gave a minimal inhibitory concentration (MIC) of 4 to 10 µM (≈ 4.26 to 10.6 µg/mL).
Consider `C/C=C/C[C@@H]1NC(=O)[C@H](CC(C)C)NC(=O)[C@H](C[C@@H](C)CO)N(C)C(=O)[C@H](C)NC(=O)[C@H](Cc2ccc(O)c([N+](=O)[O-])c2)NC(=O)[C@H](CC(C)C)N(C)C(=O)[C@H](Cc2cn(C(C)(C)[C@H]3CO3)c3ccccc23)NC1=O` (cyclo(A[NMeLeu(5-OH,4R)]L[Gly(E-crotyl)][Trp(1-CMe2(2S-oxiranyl))][NMeL][Tyr(3-NO2)])), for which the MIC in assay [1] is 0.44 µM; in assay [2], 4 to 10 µM (≈ 4.18 to 10.4 µg/mL). The Kd in assay [3] came out at 1.3 µM; in assay [4] it was 1.6 µM.
For the compound `C/C=C/C[C@@H]1NC(=O)[C@H](CC(C)C)NC(=O)[C@H](CC(C)C(OC)OC)N(C)C(=O)[C@H](C)NC(=O)[C@H](Cc2ccc(O)c([N+](=O)[O-])c2)NC(=O)[C@H](CC(C)C)N(C)C(=O)[C@H](Cc2cn(C(C)(C)[C@H]3CO3)c3ccccc23)NC1=O` (stereo partly drawn) (cyclo(A[X1]L[Gly(E-crotyl)][Trp(1-CMe2(2S-oxiranyl))][NMeL][Tyr(3-NO2)])), the MIC is 0.11 µM in assay [1] and 4 to 10 µM (≈ 4.35 to 10.9 µg/mL) in assay [2]. The Kd in assay [3] stood at 0.45 µM; in assay [4] it was 0.31 µM.
Take `C=CC(C)(C)n1cc(C[C@@H]2NC(=O)[C@H](C/C=C/C)NC(=O)[C@H](CC(C)C)NC(=O)[C@H](C[C@H](C)CO)N(C)C(=O)[C@H](C)NC(=O)[C@H](Cc3ccc(O)c([N+](=O)[O-])c3)NC(=O)[C@H](CC(C)C)N(C)C2=O)c2ccccc21` (cyclo(A[X2]L[Gly(E-crotyl)][Trp(1-(1,1-Me2-allyl))][NMeL][Tyr(3-NO2)])): the MIC in assay [1] is 0.84 µM; in assay [2], 4 to 10 µM (≈ 4.11 to 10.3 µg/mL). Besides, the Kd in assay [3] and in assay [4] was 1.1 µM each time.
As to `C/C=C/C[C@@H]1NC(=O)[C@H](CC(C)C)NC(=O)[C@H](C[C@H](C)CO)N(C)C(=O)[C@H](C)NC(=O)[C@H](Cc2ccc(O)c([N+](=O)[O-])c2)NC(=O)[C@H](CC(C)C)N(C)C(=O)[C@H](Cc2cn(C(C)(C)[C@H]3CO3)c3ccccc23)NC1=O` (cyclo(A[X2]L[Gly(E-crotyl)][Trp(1-CMe2(2S-oxiranyl))][NMeL][Tyr(3-NO2)])), the MIC was 0.25 µM in assay [1] and 4 to 10 µM (≈ 4.18 to 10.4 µg/mL) in assay [2]. Moreover, the results for the Kd in assay [3] and in assay [4] were 0.5 µM and 0.62 µM, respectively.
In the case of `NNC(=O)c1ccncc1` [ISONIAZID], the results for the MIC in assay [5] and in assay [1] were greater than 8 µM and 0.46 µM, respectively. In addition, the IC50 – broadly, the concentration needed to halve the response being measured – in the assay on Vero is greater than 50 µM.
For `CO[C@H]1/C=C/O[C@@]2(C)Oc3c(C)c(O)c4c(O)c(c(/C=N/N5CCN(C)CC5)c(O)c4c3C2=O)NC(=O)/C(C)=C\C=C\[C@H](C)[C@H](O)[C@@H](C)[C@@H](O)[C@@H](C)[C@H](OC(C)=O)[C@@H]1C` [RIFAMPIN], in that order: greater than 4 µM, 0.03 µM and greater than 122 µM.
